Test results reported in ChEMBL document CHEMBL4330157, “Lycopodium Alkaloids: Lycoplatyrine A, an Unusual Lycodine-Piperidine Adduct from Lycopodium platyrhizoma and the Absolute Configurations of Lycoplanine D and Lycogladine H” (J Nat Prod, 2019).

Each compound was assayed against Acetylcholinesterase (Homo sapiens, UniProt P22303) (assay: Inhibition of AChE (unknown origin) using acetylthiocholine as substrate preincubated for 15 mins followed by substrate addition measured every minute for 15 mins by Ellman's method).
Chain of Acetylcholinesterase (P22303 whole entry): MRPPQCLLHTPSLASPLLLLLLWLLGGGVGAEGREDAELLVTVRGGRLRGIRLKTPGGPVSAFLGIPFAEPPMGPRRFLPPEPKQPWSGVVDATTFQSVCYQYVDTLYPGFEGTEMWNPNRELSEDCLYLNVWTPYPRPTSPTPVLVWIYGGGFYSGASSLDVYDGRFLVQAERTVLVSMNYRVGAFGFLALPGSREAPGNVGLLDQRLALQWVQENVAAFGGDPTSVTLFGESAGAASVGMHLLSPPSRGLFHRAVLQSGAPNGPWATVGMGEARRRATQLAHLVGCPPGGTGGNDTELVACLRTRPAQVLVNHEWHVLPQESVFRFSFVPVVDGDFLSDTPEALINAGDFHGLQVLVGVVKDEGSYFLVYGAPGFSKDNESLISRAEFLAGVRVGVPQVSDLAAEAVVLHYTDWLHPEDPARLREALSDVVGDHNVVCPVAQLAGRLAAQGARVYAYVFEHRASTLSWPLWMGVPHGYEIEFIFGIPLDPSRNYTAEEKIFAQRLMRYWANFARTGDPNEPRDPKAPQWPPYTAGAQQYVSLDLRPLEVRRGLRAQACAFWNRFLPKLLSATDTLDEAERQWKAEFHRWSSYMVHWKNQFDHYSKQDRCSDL

Row | Structure (SMILES) | IC50 [µM]
1 | CC1C[C@H]2[C@H](O)[C@@H]3O[C@]4(C1)OC1CCN5CCCC24[C@]13C5 (stereo partly drawn) | > 30
2 | C[C@@H]1C[C@H]2Cc3ncc(C4CCCCN4)cc3[C@]3(C1)NCCC[C@H]23 (stereo partly drawn) | > 30
3 | C=C[C@@H]1[C@@H]2CC3=C(CCC(=O)N3)[C@@]1(N)C[C@H](C)C2 | > 30
